Experimental data: patent US9884813B1, “Pharmaceutically acceptable salts of B-guanidinopropionic acid with improved properties and uses thereof” (Rgenix, Inc., priority 2017, dated 2018)
Values joined by “and” are separate entries in the source; they are usually repeats but may differ in a detail not shown here. Equal values may be shown once. “Also recorded” adds a separate entry of the source.

How the values were obtained:
[1] = Dynamic vapor sorption (DVS) with XRPD of the post-DVS sample; assay type: physicochemical; details: for solid form by XRPD after the DVS experiment: post DVS sample
Description: Samples were analyzed using an Aquadyne DVS-2 gravimetric water sorption analyzer. The relative humidity was adjusted between 2-95% and the weight of the sample was continuously monitored and recorded.
[…]: β-GPA maleate (1:1) Form II, β-GPA fumarate (1:1), β-GPA maleate (2:1), β-GPA succinate (2:1) and β-GPA oxalate (1:1) were analyzed by DVS experiment followed by XRPD analysis of the sample at the end of the experiment.
Sample 2162-64-1 was analyzed by DVS in triplicate and the post DVS samples were characterized by XRPD to identify the form at the end of the experiment.

[2] = Solid form stability at 40° C. and 75% humidity; assay type: physicochemical; details: for solid form stability (XRPD): 40° C. and 75% RH for seven days
Description: Solid form stability studies of β-GPA fumarate, succinate, and oxalate were carried out at 40° C. and 75% RH for seven days. Around 30 mg of the salts were placed in 4 mL vials which were placed in a saturated solution of sodium chloride (2 mL) with lids closed at 40° C. […]

[3] = Bulk and tapped density; assay type: physicochemical
Description: The bulk density of β-GPA oxalate (Pattern 18 B), succinate (Pattern 15A), and fumarate (Pattern 7A) were determined by pouring in a known amount of salt (g) into a measuring cylinder. The volume (Vi) occupied by the salt was recorded and the bulk density (ρB) was determined using equation 1. ρB=g/Vi (1)
The tapped densities of the salts were determined using a Tap density analyzer. A known amount of salt was poured (g) into a measuring cylinder and the initial volume was recorded and tapped using a Tap density analyzer. The final volume (Vf) after tapping was recorded and the tapped density (ρT) was calculated by using equation 2. ρT=g/Vf (2)

[4] = Carr's index and Hausner ratio (predicted flowability); assay type: physicochemical; details: for Carr's index / Hausner ratio: calculated from bulk and tapped volumes; for Flow character: scale of Table 6 (Carr's index)
Text: The flow properties of β-GPA are sub-optimal. The bulk density is 0.389 g/cc and the tapped density is 0.627 g/cc. These measurements can be used to calculate the Carr's index and Hausner ratio for a substance. The Carr's index and Hausner ratio are indicators of flowability of a powder. As known in the art, e.g., as described in Carr R. L. Chem. Eng. 1965, 72, 163-168, the relationship to flowability of a powder to the Carr's index and Hausner ratio is based on the scale shown in Table 6 below.
Carr's index or Carr's compressibility index (C) is an indication of the compressibility of a powder. It can be calculated using the equation below: Carr's index (C)=100(Vi−Vf)/Vi (3) A Carr's index greater than 25 is considered to be an indication of poor flowability while a value below 15 is an indication of good flowability.
The Hausner ratio is a number that is correlated to the flowability of a powder or granular material. It is calculated by using the equation below: Hausner ratio=Vi/Vf (4)

[5] = Flowability measurement using Hanson Flodex unit; assay type: physicochemical; details: for flow character from the experimental data: summary of density and Flodex measurements
Text: Method: A cylindrical vessel is secured to the stand and above that a funnel is also secured such that the bottom of the funnel is close to the vessel. A powder load of ≈50-60 g is then poured through the funnel into the middle of the cylinder. The lever device is pulled to open the hole in the disk quickly and without vibration. If a powder slowly flows through the small-diameter holes, leaving a cavity shaped like an upside-down, truncated cone, the test is considered positive. If a powder flocculates in bulk and falls abruptly, forming a cylindrical cavity, the test is considered negative. […] If the experiment is negative, the powder is tested again with a disk having a larger hole.

[6] = Roller compaction feasibility (slugs, capsule fill)
Description: Roller compaction feasibility was performed by producing slugs using a single station hand press then carefully hand milling those slugs so that all granules were small enough to pass through a size US 18 mesh. These granules were then filled into size 0 capsules by both the free flow and tamp method. A total of N=5 capsules were filled for each lot for each method. The average net fill weight results are given below in […]. The same issue was not seen when compressing the succinate salt form of β-GPA. Slugs produced around 1500 PSI produced slugs hard enough to be tested for hardness. The resulting slug parameters can be seen in Table 33.

[7] = Compression profile evaluation (tabletability); assay type: physicochemical
Description: Compression profiling was also performed on both the free base and the salt form of the API. A standard formulation containing plastic diluent, brittle diluent, disintegrant and lubricant was evaluated at a loading of 25% and 50% API. The diluent level was adjusted accordingly, but the ratio of plastic to brittle filler was set a 1:1. It was decided to use a representative tablet formulation to perform compression profiling to mitigate the cohesion and sticking issues seen in the free base and the salt form during the roller compaction feasibility evaluation. Table 37 details the formulation compositions tested.
These blends were then compressed into 100 mg compacts using 0.25-inch flat faced tooling at increasing compaction pressures. A total of N=3 compacts were produced at each compaction pressure and were measured for weight, thickness and hardness. The compression stresses used were calculated by dividing the force applied to the compact by the surface area of the 0.25 in flat faced tooling. The tensile strength of the compacts was calculated using the equations derived for flat faced tablets. For each formulation, a tabletability (tensile strength vs. compression pressure) was generated. For the purposes of this study the tabletability profile was examined to determine the compaction pressure required in order to produce a tablet of acceptable tensile strength. Historically a tablet with a tensile strength of 2.0 Mpa is sufficient to both withstand friability and to not impact disintegration and dissolution.

[8] = Dynamic vapor sorption (DVS) with XRPD of the post-DVS sample; assay type: physicochemical; details: relative humidity between 0-95 percent
[9] = Carr's index and Hausner ratio (predicted flowability); assay type: physicochemical; details: Table 18, scale of Table 17
[10] = Solid form stability under stressed conditions (wet, dry, high humidity) by XRPD; assay type: physicochemical
Description: The solid form stability of each salt was studied by XRPD under stressed conditions: wet, dry (45° C. under vacuum) and high humidity (RH >95%).

[11] = Solid form stability of salts in different solvents (slurry, XRPD); assay type: physicochemical; details: 48 hours, room temperature
Description: Three salts were studied for solid form stability in water (disproportionation test), methanol, acetonitrile, and acetone:water (9:1) for 48 hours at room temperature.

[12] = as above; assay type: physicochemical; details: water, 6 hours, room temperature
[13] = Experiments on lyophilized 2:1 fumarate polymorph (Pattern 7C); assay type: physicochemical
Description: 1 g of 2:1 β-GPA fumarate was dissolved in 10 mL of water at 50° C. in a round bottom flask. The round bottom flask was placed in the dry ice/acetone cooling bath (−78° C.) until the sample solidified followed by lyophilization for 48 hours. A white solid was obtained which was analyzed by XRPD, DSC and ^1H-NMR. Sample ID: 2162-84-1.
To confirm the above hypothesis the following experiments (Table 25) were performed on the lyophilized sample (Pattern 7C): […]

[14] = Average of 5 slugs, average Compression Force 1600.00 PSI (28.67 MPa)
[15] = slug, Compression Force 1500 PSI, Compression Stress 27 MPa, listed as β-Guanidinopropionic Acid Succinate Salt
[16] = slug, Compression Force 2000 PSI, Compression Stress 36 MPa

N=C(N)NCCC(=O)O [β-GPA, β-Guanidinopropionic acid, reference compound]
water uptake ([1]; 80% humidity at 25° C.): ~0.3%
solid form by XRPD after the DVS experiment [1]: No change in the solid form
degradation ([2]; 40° C. at 75% humidity after 4 weeks): No degradation was observed
Bulk density [3]: 0.389 g/cc
Tapped density [3]: 0.627 g/cc
Carr's index [4]: 37.9
Hausner ratio [4]: 1.610
Flow character ([4]; predicted): Very poor (32-37)
Flow character by Hausner ratio ([4]; predicted, scale of Table 6 (Hausner ratio)): Very very poor (>1.60)
Did solid pass? ([5]; Disc pore size 18 mm): No
Did solid pass? ([5]; Disc pore size 20 mm): No
Did solid pass? ([5]; Disc pore size 28 mm): No
Did solid pass? ([5]; Disc pore size 30 mm): No
Did solid pass? ([5]; Disc pore size 34 mm): Yes
flow character from the experimental data [5]: poor
calculated solid fraction of slugs ([6]; slugs produced using up to 2000 psi): 74%
compression stress (compaction pressure) required to produce a tablet of 2.0 Mpa tensile strength ([7]; 25% API loading formulation): roughly 235 Mpa
compression stress (compaction pressure) required to produce a tablet of 2.0 Mpa tensile strength ([7]; 50% API loading formulation): incapable of reaching a tablet with 2.0 Mpa
moisture absorbed and desorbed [8]: around 0.1%
Flow character [9]: Very very poor (>38)

N=C(N)NCCC(=O)O.N=C(N)NCCC(=O)O.O=C(O)CCC(=O)O [β-GPA succinate (2:1)]
solid form by XRPD after the DVS experiment [1]: retained their XRPD
solid form by XRPD after the DVS experiment ([1]; listed as 2:1 succinate salt): no form change
solid form by XRPD after the DVS experiment ([1]; listed as 2:1 β-GPA succinate): no form change
Dry_XRPD pattern ([10]; dry (45° C. under vacuum)): Pattern 15A
stability in dry conditions ([10]; dry conditions): stable
Humid_XRPD pattern ([10]; high humidity (RH >95%)): Pattern 15A
stability under high humidity conditions ([10]; high humidity conditions): stable
Wet_XRPD pattern ([10]; wet): Pattern 15A
XRPD pattern after slurry ([11]; acetone:water (9:1)): presence of β-GPA
XRPD pattern after slurry ([11]; acetonitrile): retain its original form
XRPD pattern after slurry ([11]; acetonitrile, listed as 2:1 β-GPA succinate): retain its XRPD pattern
XRPD pattern after slurry ([11]; methanol): retain its original form
XRPD pattern after slurry ([11]; methanol, listed as 2:1 β-GPA succinate): retain its XRPD pattern
solid form stability (XRPD) [2]: retained their original XRPD pattern; also recorded: stable
solid form stability (XRPD) ([2]; listed as 2:1 succinate salt): stable
Bulk density [3]: 0.405 g/cc
Tapped density [3]: 0.472 g/cc
Carr's index [4]: 14.3
Hausner ratio [4]: 1.167
Flow character ([4]; predicted): Good (11-15)
Did solid pass? ([5]; Disc pore size 5 mm): No
Did solid pass? ([5]; Disc pore size 6 mm): No
Did solid pass? ([5]; Disc pore size 7 mm): Yes
Did solid pass? ([5]; Disc pore size 8 mm): Yes
Did solid pass? ([5]; Disc pore size 10 mm): Yes
Did solid pass? ([5]; Disc pore size 18 mm): Yes
Did solid pass? ([5]; Disc pore size 20 mm): Yes
Did solid pass? ([5]; Disc pore size 22 mm): Yes
Did solid pass? ([5]; Disc pore size 24 mm): Yes
flow character from the experimental data [5]: good
Calculated Solid Fraction [6, 14]: 0.80
Tablet Hardness [6, 14]: 4.86 kp
Tensile Strength [6, 14]: 0.34 MPa
Calculated Solid Fraction ([6]; slug, Compression Force 1500 PSI, Compression Stress 27 MPa): 0.79
Tablet Hardness [6, 15]: 5.1 kp and 3.7 kp and 4.4 kp and 4.3 kp
Tensile Strength [6, 15]: 0.35 MPa and 0.25 MPa and 0.30 MPa and 0.29 MPa
Calculated Solid Fraction [6, 16]: 0.85
Tablet Hardness [6, 16]: 6.8 kp
Tensile Strength [6, 16]: 0.50 MPa
compaction force required to produce a tablet of 2.0 Mpa tensile strength ([7]; 25% API loading formulation): 22.7 kN
compression stress (compaction pressure) required to produce a tablet of 2.0 Mpa tensile strength ([7]; 25% API loading formulation): 150 Mpa
compaction force required to produce a tablet of 2.0 Mpa tensile strength ([7]; 50% API loading formulation): ~34.8 kN
compression stress (compaction pressure) required to produce a tablet of 2.0 Mpa tensile strength ([7]; 50% API loading formulation): ~230 Mpa
XRPD pattern after slurry [12]: two peaks from β-GPA
XRPD pattern after slurry ([12]; listed as 2:1 β-GPA succinate): started showing up peaks from β-GPA
Flow character [9]: Good (11-15)

N=C(N)NCCC(=O)O.N=C(N)NCCC(=O)O.O=C(O)/C=C/C(=O)O [Pattern 7C]
stability of the polymorph [13]: unstable
